# Experiments:
# HCT116-MTAPwt = test: 2D antiproliferative assay (CTG cell viability), wild-type cells; format: cell-based; settings: Homo sapiens, HCT-116, 7-10 days
# Experimental: (§1) HCT116 wild-type and MTAP-deficient cells were cultured in McCoy's 5A medium containing 10% FBS and 1% penicillin-streptomycin, and cultured in a 37°C, 5% CO2 constant temperature incubator. 40 µL of cell suspension was introduced into each well of a 384-well microplate. 40 nL of different concentrations of test compounds were added to each well using an Echo, before culturing in a 37°C, 5% CO2 constant temperature incubator for 7-10 days. 40 µL of CTG solution (Promega, Cat No. G7573) was added to each well and incubated in a 37°C, 5% CO2 constant temperature incubator for 30 minutes in the dark.
# [1] = Liver microsomal stability assay, human
# Experimental: The compounds to be tested were co-incubated with liver microsomes of different species with or without the addition of NADPH. The final concentration of the test compounds in the test system was 1 µM, the final concentration of NADPH was 1 mM, and the final concentration of liver microsomes was 0.5 mg/mL.
# HCT116-MTAPdel = test: 2D antiproliferative assay (CTG cell viability), MTAP-deficient cells; format: cell-based; settings: for IC50: Homo sapiens, HCT-116, HCT116 MTAP-deficient cells, 7-10 days, CTG, read-out: HCT116-MTAPdel/IC50/nM; for HCT116WT IMTAPdel selectivity: ratio IC50 wild type / MTAPdel, antiproliferation
# Experimental: as §1
# [2] = Mouse pharmacokinetics testing; format: in vivo, CD1 female mice; settings: female, CD1, mouse, in vivo
# Experimental: CD1 female mice were used as test animals and administered the compounds orally/intravenously (oral dosage was 10 mg/kg and intravenous dosage was 2 mg/kg). Test protocol: Each oral and intravenous group consisted of three mice. […] Plasma drug concentrations after oral and intravenous administration were determined by LC/MS/MS, and the collected data analyzed using AB Sciex QTRAP 6500 software.
# SDMA/HCT116-MTAPdel = test: In-cell arginine symmetric dimethylation inhibition (In-cell western, ICW), MTAP-deficient cells; format: cell-based
# Experimental: (§2) 60 nL of different concentrations of compounds were added to each well using an Echo, and incubated at 37°C, 5% CO2 for 96 hours.
# (§3) Next, 50 µL of 4% paraformaldehyde solution was added to each well and incubated at room temperature for 20 minutes to fix the cells. The solution in the wells was removed, and each well was rinsed four times with PBS solution containing 0.1% Tween 20 (PBST). To each well was then added 30 µL of ice-cold methanol. After standing at -20°C for 10 minutes, the methanol was removed and the wells washed four times with PBST. 30 µL of Odyssey blocking solution containing 0.5% Tween 20 was added to each well and shaken for 2 hours at room temperature. The blocking solution was removed and 30 µL of primary antibody (Symmetric Di-Methyl Arginine Motif [sdma-RG] MultiMab™ Rabbit mAb mix) diluted at 1:500 in Odyssey blocking solution containing 0.5% Tween 20 was added to each well. The plates were incubated overnight at 4°C, before removing the primary antibody and rinsing each well four times with PBST, 5 minutes per rinse. Secondary antibody (goat anti-rabbit IRDye 800CW, 1:800) and nuclear stain (DRAQ5, 1:10000) diluted in Odyssey blocking solution containing 0.5% Tween 20 were then added to each well before incubating at room temperature for 2 hours in the dark. The secondary antibody was removed, and the wells rinsed four times with PBST.
# (§4) The sdme-RG and DRAQ5 signals were scanned at 800 nm and 700 nm respectively on a Li-Cor Odyssey instrument and the signal values recorded. The sdme-RG/DRAQ5 ratio was used to calculate the percentage inhibition of arginine symmetric dimethylation (SDMA), and the IC50 value calculated using GraphPad Prism software.
# SDMA/HCT116-MTAPwt = test: In-cell arginine symmetric dimethylation inhibition (In-cell western, ICW), wild-type cells; format: cell-based; settings: Homo sapiens, HCT-116, 96 hours
# Experimental: as §2, §3, §4
smiles,measurement,setting,value
CN(C(=O)C(=O)Nc1cnc(N)c2c1cnn2C)C1COc2cc(OC(F)(F)F)ccc21 (stereo not shown) [Compound P30],IC50,HCT116-MTAPwt,3140 nM
same,CLint scaled at 1 µM,[1]; liver microsomes,9.4 mL/min/kg
same,IC50,HCT116-MTAPdel,13 nM
same,HCT116WT IMTAPdel selectivity,HCT116-MTAPdel,241
same,F,[2],74%
same,AUC(0-t),"[2]; iv, 2 mg/kg",1410 ng·h/mL
same,C0,"[2]; iv, 2 mg/kg",1070 ng/mL
same,clearance,"[2]; iv, 2 mg/kg",23 mL/min/kg
same,half-life,"[2]; iv, 2 mg/kg",2 h
same,AUC(0-t),"[2]; po, 10 mg/kg",5150 ng·h/mL
same,Cmax,"[2]; po, 10 mg/kg",1850 ng/mL
same,Tmax,"[2]; po, 10 mg/kg",0.25 h
same,half-life,"[2]; po, 10 mg/kg",1.5 h
Cn1ncc2c(NC(=O)C(=O)N(CC(F)(F)F)[C@@H]3COc4cc(C(F)(F)F)ccc43)cnc(N)c21 [Compound P20a],IC50,HCT116-MTAPwt,6020 nM
same,CLint scaled at 1 µM,[1]; liver microsomes,19.2 mL/min/kg
same,IC50,HCT116-MTAPdel,28 nM
same,HCT116WT IMTAPdel selectivity,HCT116-MTAPdel,215
Cn1ncc2c(NC(=O)C(=O)N(CC(F)(F)F)[C@H]3COc4cc(C(F)(F)F)ccc43)cnc(N)c21 [Compound P20b],IC50,HCT116-MTAPwt,> 10000 nM
same,IC50,HCT116-MTAPdel,883 nM
same,HCT116WT IMTAPdel selectivity,HCT116-MTAPdel,11
C[C@H](c1ncccn1)N(Cc1ccc(-c2cncc(Cl)c2)cn1)C(=O)C(=O)Nc1cnc(N)c2c1cnn2C [Compound P8],IC50,HCT116-MTAPwt,161 nM
same,IC50,HCT116-MTAPdel,4 nM
same,HCT116WT IMTAPdel selectivity,HCT116-MTAPdel,40
C[C@H](c1ncccn1)N(Cc1ccc(C(F)(F)F)cn1)C(=O)C(=O)Nc1cnc(N)c2c1cnn2C1CC1 [Compound P7],IC50,HCT116-MTAPwt,2520 nM
same,IC50,HCT116-MTAPdel,56 nM
same,HCT116WT IMTAPdel selectivity,HCT116-MTAPdel,45
CN(C(=O)C(=O)Nc1cnc(N)c2c1cnn2C)[C@H]1COCc2nc(-c3cncc(Cl)c3)ccc21 [Compound H2a],IC50,HCT116-MTAPwt,> 10000 nM
same,IC50,HCT116-MTAPdel,224 nM
same,HCT116WT IMTAPdel selectivity,HCT116-MTAPdel,>45
C[C@H](c1ncccn1)N(Cc1ccc(C(F)(F)F)cn1)C(=O)C(=O)Nc1cnc(N)c2cnn(C)c12 [Compound P4],IC50,HCT116-MTAPwt,> 10000 nM
same,IC50,HCT116-MTAPdel,813 nM
same,HCT116WT IMTAPdel selectivity,HCT116-MTAPdel,>12
CN(C(=O)C(=O)Nc1cnc(N)c2c1cnn2C)[C@H]1COc2cc(OC(F)(F)F)ccc21 [Compound P30b],IC50,HCT116-MTAPwt,> 10000 nM
same,IC50,HCT116-MTAPdel,191 nM
same,HCT116WT IMTAPdel selectivity,HCT116-MTAPdel,>52
"Cc1cc(NC(=O)C(=O)N2C[C@@H](C)CC[C@@H]2c2ccc3scnc3c2)cnc1N [TNG908, reference compound]",IC50,"SDMA/HCT116-MTAPdel; Homo sapiens, HCT-116, HCT116 MTAP-deficient cells, 96 hours",2.6 nM
same,Selectivity wt/MTAPdel,SDMA/HCT116-MTAPdel; ratio SDMA IC50 wt / MTAPdel,850
same,IC50,HCT116-MTAPwt,1190 nM
same,IC50,HCT116-MTAPdel,43 nM
same,HCT116WT IMTAPdel selectivity,HCT116-MTAPdel,27
same,IC50,SDMA/HCT116-MTAPwt,2210 nM
CN(C(=O)C(=O)Nc1cnc(N)c2c1cnn2C)[C@H]1COc2cc(C(F)(F)F)ccc21 [Compound P2b],IC50,HCT116-MTAPwt,> 10000 nM
same,IC50,HCT116-MTAPdel,118 nM
same,HCT116WT IMTAPdel selectivity,HCT116-MTAPdel,85
CCn1ncc2c(NC(=O)C(=O)N(Cc3ccc(C(F)(F)F)cn3)[C@H](C)c3ncccn3)cnc(N)c21 [Compound P6],IC50,HCT116-MTAPwt,1300 nM
same,IC50,HCT116-MTAPdel,18 nM
same,HCT116WT IMTAPdel selectivity,HCT116-MTAPdel,72
Cn1ncc2c(NC(=O)C(=O)N(C3CC3)[C@@H]3COc4cc(C(F)(F)F)ccc43)cnc(N)c21 [Compound P21b],IC50,HCT116-MTAPwt,847 nM
same,IC50,HCT116-MTAPdel,6 nM
same,HCT116WT IMTAPdel selectivity,HCT116-MTAPdel,141
C[C@H]1CC[C@H](c2ccc3sc(C4CCOCC4)nc3c2)N(C(=O)C(=O)Nc2cnc(N)c3c2cnn3C)C1 (racemic) [Compound P18],IC50,HCT116-MTAPwt,900 nM
same,IC50,HCT116-MTAPdel,14 nM
same,HCT116WT IMTAPdel selectivity,HCT116-MTAPdel,64
CN(C(=O)C(=O)Nc1cnc(N)c2c1cnn2C)C1COCc2nc(C(F)(F)F)ccc21 (stereo not shown) [Compound P9],IC50,HCT116-MTAPwt,1420 nM
same,CLint scaled at 1 µM,[1]; liver microsomes,5 mL/min/kg
same,IC50,HCT116-MTAPdel,24 nM
same,HCT116WT IMTAPdel selectivity,HCT116-MTAPdel,59
CCn1ncc2c(NC(=O)C(=O)N(C)[C@@H]3COc4cc(C(F)(F)F)ccc43)cnc(N)c21 [Compound P24],IC50,HCT116-MTAPwt,> 10000 nM
same,IC50,HCT116-MTAPdel,2410 nM
same,HCT116WT IMTAPdel selectivity,HCT116-MTAPdel,>4
CN(C(=O)C(=O)Nc1cnc(N)c2c1cnn2C)[C@@H]1COCc2nc(-c3cncc(Cl)c3)ccc21 [Compound H2b],IC50,HCT116-MTAPwt,1230 nM
same,CLint scaled at 1 µM,[1]; liver microsomes,21.3 mL/min/kg
same,IC50,HCT116-MTAPdel,4 nM
same,HCT116WT IMTAPdel selectivity,HCT116-MTAPdel,308
C[C@H]1CC[C@H](c2ccc3sc(CCN(C)C)nc3c2)N(C(=O)C(=O)Nc2cnc(N)c3c2cnn3C)C1 (racemic) [Compound P15],IC50,HCT116-MTAPwt,203 nM
same,"CLint scaled at 1 h, 1 µM",[1]; microsomes,9.7 mL/min/kg
same,IC50,HCT116-MTAPdel,6 nM
same,HCT116WT IMTAPdel selectivity,HCT116-MTAPdel,34
C[C@@H]1COC[C@H](c2ccc(-c3cncc(Cl)c3)cn2)N1C(=O)C(=O)Nc1cnc(N)c2c1cnn2C [Compound P13b],IC50,HCT116-MTAPwt,506 nM
same,IC50,HCT116-MTAPdel,2 nM
same,HCT116WT IMTAPdel selectivity,HCT116-MTAPdel,253
[2H]C([2H])([2H])N(C(=O)C(=O)Nc1cnc(N)c2c1cnn2C)[C@@H]1COCc2nc(C(F)(F)F)ccc21 [Compound P27],IC50,HCT116-MTAPwt,2110 nM
same,IC50,HCT116-MTAPdel,15 nM
same,HCT116WT IMTAPdel selectivity,HCT116-MTAPdel,141
Cn1ncc2c(NC(=O)C(=O)N(C3CC3)[C@H]3COc4cc(C(F)(F)F)ccc43)cnc(N)c21 [Compound P21a],IC50,HCT116-MTAPwt,> 10000 nM
same,IC50,HCT116-MTAPdel,978 nM
same,HCT116WT IMTAPdel selectivity,HCT116-MTAPdel,10
CN(C(=O)C(=O)Nc1cnc(N)c2c1cnn2C)[C@@H]1COc2cc(-c3cncc(Cl)c3)ccc21 [Compound H1a],IC50,HCT116-MTAPwt,2320 nM
same,IC50,HCT116-MTAPdel,9 nM
same,HCT116WT IMTAPdel selectivity,HCT116-MTAPdel,258
CN(C(=O)C(=O)Nc1cnc(N)c2c1cnn2C)[C@@H]1COc2cc(OC(F)(F)F)ccc21 [Compound P30a],IC50,HCT116-MTAPwt,1550 nM
same,IC50,HCT116-MTAPdel,7 nM
same,HCT116WT IMTAPdel selectivity,HCT116-MTAPdel,221
[2H]C([2H])([2H])n1ncc2c(NC(=O)C(=O)N(C)[C@@H]3COc4cc(C(F)(F)F)ccc43)cnc(N)c21 [Compound P23],IC50,HCT116-MTAPwt,1710 nM
same,IC50,HCT116-MTAPdel,17 nM
same,HCT116WT IMTAPdel selectivity,HCT116-MTAPdel,101
CCN(C(=O)C(=O)Nc1cnc(N)c2c1cnn2C)[C@H]1COCc2nc(C(F)(F)F)ccc21 [Compound P28a],IC50,HCT116-MTAPwt,2340 nM
same,IC50,HCT116-MTAPdel,986 nM
same,HCT116WT IMTAPdel selectivity,HCT116-MTAPdel,2
CC1CCC(c2ccc3sc(C4CCN(C)CC4)nc3c2)N(C(=O)C(=O)Nc2cnc(N)c3c2cnn3C)C1 (racemic) [Compound P5],IC50,HCT116-MTAPwt,36 nM
same,"CLint scaled at 1 h, 1 µM",[1]; liver microsomes,10.7 mL/min/kg
same,IC50,HCT116-MTAPdel,4 nM
same,HCT116WT IMTAPdel selectivity,HCT116-MTAPdel,9
C[C@H]1COC[C@@H](c2ccc(C(F)(F)F)cn2)N1C(=O)C(=O)Nc1cnc(N)c2c1cnn2C (racemic) [Compound P11],IC50,HCT116-MTAPwt,855 nM
same,"CLint scaled at 1 h, 1 µM",[1]; microsomes,16.5 mL/min/kg
same,IC50,HCT116-MTAPdel,15 nM
same,HCT116WT IMTAPdel selectivity,HCT116-MTAPdel,57
CCn1ncc2c(NC(=O)C(=O)N(C)[C@@H]3COCc4nc(C(F)(F)F)ccc43)cnc(N)c21 [Compound P25],IC50,HCT116-MTAPwt,> 10000 nM
same,IC50,HCT116-MTAPdel,1260 nM
same,HCT116WT IMTAPdel selectivity,HCT116-MTAPdel,>8

# Source: patent EP4653435A1, “PRMT5-MTA INHIBITOR” (Suzhou Puhe Biopharma Co., Ltd., priority 2023, dated 2024)
